Data published in PMC10830462, “Molecular insights into the dynamic modulation of bacterial ClpP function and oligomerization by peptidomimetic boronate compounds” (Scientific Reports, 2024).

Key:
Assay type in all cases: binding
[1] = target: T1, SeClpP (ClpP from Staphylococcus epidermidis) (Staphylococcus epidermidis, UniProt Q8CTE0); assay: nanoDSF thermal shift; conditions: 10 µM SeClpP, pH 7.5, 100 mM KCl, 2 mM DTT, no glycerol; covalent (reversible boronate)
T1 construct: codon-optimised ORF in pET28a(+), C-terminal His-tag, expressed in E. coli BL21(DE3) Star; homotetradecamer (about 300 kDa) of two stacked heptameric rings, heptamers also present without glycerol; catalytic triad Ser98, His123, Asp172
T1 sequence (Q8CTE0 1-194): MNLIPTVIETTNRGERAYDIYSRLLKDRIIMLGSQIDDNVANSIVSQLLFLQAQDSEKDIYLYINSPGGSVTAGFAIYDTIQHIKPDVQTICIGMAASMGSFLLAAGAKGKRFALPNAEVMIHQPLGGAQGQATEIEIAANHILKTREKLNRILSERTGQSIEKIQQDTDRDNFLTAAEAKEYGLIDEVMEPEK

[2] = target: T1, SeClpP (ClpP from Staphylococcus epidermidis); assay: isothermal titration calorimetry; conditions: read-out: K (converted)
[3] = target: T1, SeClpP (ClpP from Staphylococcus epidermidis); assay: X-ray crystal structure, soaked crystals, […] Å; conditions: catalytic site; covalent (boron to Ser98, reversible); crystals soaked with 10 mM ixazomib

CC(C)C[C@H](NC(=O)CNC(=O)c1cc(Cl)ccc1Cl)B(O)O [ixazomib]
melting temperature [1]: SeClpP bound to the peptidomimetic boronate, and therefore more thermostable
Kd [2]: 5.38 µM
X-ray crystal structure, soaked crystals, 2.33 Å [3]: the boron atom of ixazomib is covalently bound to Ser98
